Measurements as given in ChEMBL document CHEMBL6078687 (J Med Chem, 2024).

Columns and labels:
[1] = Cmax in Sprague-Dawley rat at 2 mg/kg, iv measured for 15 to 1440 mins by LC-MS/MS analysis; type: ADME, organism-based; details: in vivo, time 15-1440 min
[2] = Metabolic stability in human plasma assessed as compound remaining at 2 uM incubated upto 120 mins by LC-MS/MS analysis; type: ADME, cell-free; details: read-out: Stability
Influenza A virus [3] = test: Antiviral activity against Influenza A virus A/WSN/67/05 H3N2 infected in MDCK cells assessed as inhibition of plaque formation measured after 2 days; details: A/WSN/67/05 H3N2, MDCK, 48 h
[4] = Acute toxicity in Kunming mouse assessed as signs of sedation at 1000 mg/kg, IG measured for 1 week; type: organism-based; details: in vivo, po, 168 h, time 1 weeks
Influenza A virus [5] = test: microbe, parasite or virus in culture; details: A/Goose/Guangdong/SH7/2013 H5N1, CEF, 48 h
[6] = Half life in Sprague-Dawley rat at 2 mg/kg, iv measured for 15 to 1440 mins by LC-MS/MS analysis; type: ADME, organism-based; details: in vivo, time 15-1440 min
[7] = Half life in Sprague-Dawley rat at 20 mg/kg, po measured for 15 to 1440 mins by LC-MS/MS analysis; type: ADME, organism-based; details: in vivo, time 15-1440 min
[8] = Acute toxicity in Kunming mouse assessed as signs of disheveled fur at 1000 mg/kg, IG measured for 1 week; type: organism-based; details: in vivo, po, 168 h, time 1 weeks
in vivo [9] = details: Sprague-Dawley, rat, po, 20 mg/kg
Influenza A virus [10] = test: microbe, parasite or virus in culture; details: A/PR/8/34 H1N1, MDCK, 48 h
Influenza A virus [11] = test: microbe, parasite or virus in culture; details: A/Goose/Jiangsu/1306/2014 H5N8, CEF, 48 h
[12] = Inhibition of neuraminidase in Influenza A virus A/Goose/Guangdong/SH7/2013 H5N1 using MUNANA as substrate incubated for 40 mins by […] based assay
[13] = Metabolic stability in human plasma assessed as half life at 2 uM incubated upto 120 mins by LC-MS/MS analysis; type: ADME, cell-free
in vitro [14] = details: human, liver microsomes
[15] = Acute toxicity in Kunming mouse assessed as signs of convulsion movements at 1000 mg/kg, IG measured for 1 week; type: organism-based; details: in vivo, po, 168 h, time 1 weeks
[16] = MRT (0 to infinity) in Sprague-Dawley rat at 20 mg/kg, po measured for 15 to 1440 mins by LC-MS/MS analysis; type: ADME, organism-based; details: in vivo, time 15-1440 min
[17] = Apparent volume of distribution in Sprague-Dawley rat at 2 mg/kg, iv measured for 15 to 1440 mins by LC-MS/MS analysis; type: ADME, organism-based; details: in vivo, time 15-1440 min, read-out: Vz
[18] = Cytotoxicity against MDCK cells incubated for 48 hrs by MTT assay; type: toxicity, cell-based, Canis lupus familiaris; details: dog
[19] = Acute toxicity in Kunming mouse assessed as animal mortality at 1000 mg/kg, IG measured for 1 week; type: organism-based; details: in vivo, po, 168 h, time 1 weeks
[20] = Tmax in Sprague-Dawley rat at 2 mg/kg, iv measured for 15 to 1440 mins by LC-MS/MS analysis; type: ADME, organism-based; details: in vivo, time 15-1440 min
[21] = Acute toxicity in Kunming mouse assessed as drug tolerance at 1000 mg/kg, IG measured for 1 week; type: organism-based; details: in vivo, po, 168 h, time 1 weeks
[22] = Cmax in Sprague-Dawley rat at 20 mg/kg, po measured for 15 to 1440 mins by LC-MS/MS analysis; type: ADME, organism-based; details: in vivo, time 15-1440 min
in vivo [23] = details: Sprague-Dawley, rat, iv, 2 mg/kg
in vitro [24] = details: human, liver microsomes; remark: listed apart in the source
[25] = Cytotoxicity against CEF cells incubated for 48 hrs by CCK8 assay; type: toxicity, cell-based, Gallus gallus; details: chicken
in vivo [26] = details: Sprague-Dawley, rat, po, 20 mg/kg; remark: listed apart in the source
in vivo [27] = details: Sprague-Dawley, rat, iv, 2 mg/kg; remark: listed apart in the source
[28] = Metabolic stability in human liver microsomes assessed as compound remaining incubated for 60 mins by LC-MS/MS analysis; type: ADME, Microsome; details: 1 h
[29] = Oral bioavailability in Sprague-Dawley rat at 20 mg/kg measured for 15 to 1440 mins by LC-MS/MS analysis; type: ADME, organism-based; details: in vivo, time 15-1440 min
[30] = Clearance in Sprague-Dawley rat at 2 mg/kg, iv measured for 15 to 1440 mins by LC-MS/MS analysis; type: ADME, organism-based; details: in vivo, time 15-1440 min
[31] = MRT (0 to infinity) in Sprague-Dawley rat at 2 mg/kg, iv measured for 15 to 1440 mins by LC-MS/MS analysis; type: ADME, organism-based; details: in vivo, time 15-1440 min
[32] = Tmax in Sprague-Dawley rat at 20 mg/kg, po measured for 15 to 1440 mins by LC-MS/MS analysis; type: ADME, organism-based; details: in vivo, time 15-1440 min
[33] = MRT (0 to t) in Sprague-Dawley rat at 20 mg/kg, po measured for 15 to 1440 mins by LC-MS/MS analysis; type: ADME, organism-based; details: in vivo, time 15-1440 min
[34] = Inhibition of neuraminidase in Influenza A virus A/Babol/36/2005 H3N2 using MUNANA as substrate incubated for 40 mins by […] based assay
[35] = Acute toxicity in Kunming mouse assessed as signs of appetite loss at 1000 mg/kg, IG measured for 1 week; type: organism-based; details: in vivo, po, 168 h, time 1 weeks
[36] = Acute toxicity in Kunming mouse assessed as increase in body weight at 1000 mg/kg, IG measured for 1 week; type: organism-based; details: in vivo, po, 168 h, time 1 weeks
[37] = MRT (0 to t) in Sprague-Dawley rat at 2 mg/kg, iv measured for 15 to 1440 mins by LC-MS/MS analysis; type: ADME, organism-based; details: in vivo, time 15-1440 min

CCC(CC)O[C@@H]1C=C(C(=O)O)C[C@H](NCc2ccc(OCc3cccc(B(O)O)c3)cc2C)[C@H]1NC(C)=O
Cmax [1]: 4850 ng/mL
remaining at 2 h, 2 µM [2]: 99.3%
EC50 (Influenza A virus [3]): 67500 nM
Activity [4]: Non-toxic
EC50 (Influenza A virus [5]): 1290 nM
half-life [6]: 15 min
half-life [7]: 78.6 min
Activity [8]: Non-toxic
AUC(0-t) (in vivo [9]): 12.7 ng·h/mL
EC50 (Influenza A virus [10]): 8 nM
EC50 (Influenza A virus [11]): 1270 nM
IC50 [12]: 90 nM
half-life at 2 µM [13]: > 289 min
microsomal CLint at 2 h (in vitro [14]): 11.2 µL/min/mg
Activity [15]: Non-toxic
MRT inf [16]: 117 min
Vd [17]: 0.511 L/kg
EC50 at 48 h [18]: > 250000 nM
Activity [19]: Non-toxic
Tmax [20]: 4.98 min
Activity [21]: Non-toxic
Cmax [22]: 10.4 ng/mL
AUC(0-inf) (in vivo [23]): 1380 ng·h/mL
CLint scaled at 2 h (in vitro [24]): 10.1 mL/min/kg
CC50 at 48 h [25]: > 200000 nM
AUC(0-inf) (in vivo [26]): 20.3 ng·h/mL
AUC(0-t) (in vivo [27]): 1370 ng·h/mL
Stability [28]: 112.2%
bioavailability [29]: 0.15%
clearance [30]: 24.8 mL/min/kg
MRT inf [31]: 7.8 min
Tmax [32]: 1320 min
MRT last [33]: 48.6 min
IC50 [34]: 470 nM
Activity [35]: Non-toxic
Activity [36]: Toxic
MRT last [37]: 7.8 min

CCC(CC)O[C@@H]1C=C(C(=O)O)C[C@H](NCc2ccc(OCc3cccc(B(O)O)c3)cc2Cl)[C@H]1NC(C)=O
Cmax [1]: 2520 ng/mL
remaining at 2 h, 2 µM [2]: 104%
EC50 (Influenza A virus [3]): > 100000 nM
Activity [4]: Non-toxic
EC50 (Influenza A virus [5]): 5410 nM
half-life [6]: 16.8 min
half-life [7]: 41.4 min
Activity [8]: Non-toxic
AUC(0-t) (in vivo [9]): 47 ng·h/mL
EC50 (Influenza A virus [10]): 8 nM
EC50 (Influenza A virus [11]): 3260 nM
IC50 [12]: 17 nM
half-life at 2 µM [13]: > 289 min
microsomal CLint at 2 h (in vitro [14]): 13.6 µL/min/mg
Activity [15]: Non-toxic
MRT inf [16]: 54.6 min
Vd [17]: 1.12 L/kg
EC50 at 48 h [18]: > 250000 nM
Activity [19]: Non-toxic
Tmax [20]: 4.98 min
Activity [21]: Non-toxic
Cmax [22]: 57.5 ng/mL
AUC(0-inf) (in vivo [23]): 749 ng·h/mL
CLint scaled at 2 h (in vitro [24]): 12.2 mL/min/kg
CC50 at 48 h [25]: > 200000 nM
AUC(0-inf) (in vivo [26]): 48.8 ng·h/mL
AUC(0-t) (in vivo [27]): 747 ng·h/mL
Stability [28]: 98.6%
bioavailability [29]: 0.65%
clearance [30]: 45.5 mL/min/kg
MRT inf [31]: 10.2 min
Tmax [32]: 15 min
MRT last [33]: 46.8 min
IC50 [34]: 260 nM
Activity [35]: Non-toxic
Activity [36]: Toxic
MRT last [37]: 9.6 min
